Laboratory results: PubChem BioAssay (NCI)
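Compound exposure: 48 hours, 5 concentrations, 96-well plates. Definition used: TGI = concentration required for complete inhibition of growth.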

Experiments:
Test in all cases: NCI anticancer screen, dose series, 48 h
[1] = test system: MDA-MB-231 breast
[2] = test system: COLO 205 colon
[3] = test system: SF-539 CNS
[4] = test system: HOP-62 NSCLC
[5] = test system: HCC-2998 colon
[6] = test system: NCI/ADR-RES ovarian
[7] = test system: SF-295 CNS
[8] = test system: SK-MEL-5 melanoma
[9] = test system: 786-0 renal
[10] = test system: OVCAR-8 ovarian
[11] = test system: DU-145 prostate
[12] = test system: SF-268 CNS
[13] = test system: MOLT-4 leukemia
[14] = test system: HT29 colon
[15] = test system: ACHN renal
[16] = test system: HL-60(TB) leukemia
[17] = test system: A549 NSCLC
[18] = test system: MALME-3M melanoma
[19] = test system: HCT-116 colon
[20] = test system: A498 renal
[21] = test system: MDA-MB-435
[22] = test system: HOP-92 NSCLC
[23] = test system: SK-MEL-28 melanoma
[24] = test system: PC-3 prostate
[25] = test system: MDA-N
[26] = test system: SK-OV-3 ovarian
[27] = test system: OVCAR-3 ovarian
[28] = test system: T-47D breast
[29] = test system: SNB-19 CNS
[30] = test system: RXF 393 renal
[31] = test system: CAKI-1 renal
[32] = test system: EKVX NSCLC
[33] = test system: U251 CNS
[34] = test system: HCT-15 colon
[35] = test system: SN12C renal
[36] = test system: OVCAR-5 ovarian
[37] = test system: BT-549 breast
[38] = test system: RPMI-8226 leukemia
[39] = test system: NCI-H226 lung
[40] = test system: NCI-H23 lung
[41] = test system: SK-MEL-2 melanoma
[42] = test system: NCI-H522 lung
[43] = test system: HS 578T breast
[44] = test system: K-562 leukemia
[45] = test system: UACC-62 melanoma
[46] = test system: UO-31 renal
[47] = test system: SNB-75 CNS
[48] = test system: KM12 colon
[49] = test system: CCRF-CEM leukemia
[50] = test system: SR leukemia
[51] = test system: NCI-H460 lung
[52] = test system: MCF7 breast
[53] = test system: IGROV1 ovarian
[54] = test system: OVCAR-4 ovarian
[55] = test system: SW-620 colon
[56] = test system: UACC-257 melanoma
[57] = test system: TK-10 renal
[58] = test system: LOX IMVI melanoma
[59] = test system: M14 melanoma

**Q.** With `CCOC(=O)C(C(=O)OCC)=C1SC(=Nc2ccccc2)C(=Nc2ccccc2)N1c1ccccc1` as the compound, how does the TGI [1] read?
**A.** Its TGI is over 100 µM.

**Q.** And the TGI [2]?
**A.** Its TGI is over 100 µM.

**Q.** What about the TGI [3] of the same compound?
**A.** Its TGI is over 100 µM.

**Q.** And the TGI [4]?
**A.** The TGI was over 100 µM.

**Q.** What about the TGI [5] of the same compound?
**A.** The TGI was over 100 µM.

**Q.** And the TGI [6]?
**A.** Its TGI is over 100 µM.

**Q.** And the TGI [7]?
**A.** Its TGI is over 100 µM.

**Q.** And the TGI [8]?
**A.** Its TGI is over 100 µM.

**Q.** And the TGI [9]?
**A.** The TGI was over 100 µM.

**Q.** What about the TGI [10] of the same compound?
**A.** The TGI was over 100 µM.

**Q.** And the TGI [11]?
**A.** Its TGI is over 100 µM.

**Q.** And the TGI [12]?
**A.** Its TGI is over 100 µM.

**Q.** What about the TGI [13] of the same compound?
**A.** The TGI was over 100 µM.

**Q.** What about the TGI [14] of the same compound?
**A.** The TGI was over 100 µM.

**Q.** What about the TGI [15] of the same compound?
**A.** Its TGI is over 100 µM.

**Q.** What about the TGI [16] of the same compound?
**A.** The TGI was over 100 µM.

**Q.** What about the TGI [17] of the same compound?
**A.** The TGI was over 100 µM.

**Q.** What about the TGI [18] of the same compound?
**A.** Its TGI is over 100 µM.

**Q.** What about the TGI [19] of the same compound?
**A.** Its TGI is over 100 µM.

**Q.** And the TGI [20]?
**A.** The TGI was over 100 µM.

**Q.** And the TGI [21]?
**A.** Its TGI is over 100 µM.

**Q.** And the TGI [22]?
**A.** The TGI was over 100 µM.

**Q.** And the TGI [23]?
**A.** Its TGI is over 100 µM.

**Q.** What about the TGI [24] of the same compound?
**A.** Its TGI is over 100 µM.

**Q.** And the TGI [25]?
**A.** The TGI was over 100 µM.

**Q.** What about the TGI [26] of the same compound?
**A.** The TGI was over 100 µM.

**Q.** What about the TGI [27] of the same compound?
**A.** Its TGI is over 100 µM.

**Q.** And the TGI [28]?
**A.** Its TGI is over 100 µM.

**Q.** What about the TGI [29] of the same compound?
**A.** The TGI was over 100 µM.

**Q.** And the TGI [30]?
**A.** The TGI was over 100 µM.

**Q.** What about the TGI [31] of the same compound?
**A.** The TGI was over 100 µM.

**Q.** And the TGI [32]?
**A.** The TGI was over 100 µM.

**Q.** And the TGI [33]?
**A.** The TGI was over 100 µM.

**Q.** What about the TGI [34] of the same compound?
**A.** Its TGI is over 100 µM.

**Q.** What about the TGI [35] of the same compound?
**A.** The TGI was over 100 µM.

**Q.** And the TGI [36]?
**A.** Its TGI is over 100 µM.

**Q.** What about the TGI [37] of the same compound?
**A.** The TGI was over 100 µM.

**Q.** And the TGI [38]?
**A.** The TGI was over 100 µM.

**Q.** What about the TGI [39] of the same compound?
**A.** Its TGI is over 100 µM.

**Q.** What about the TGI [40] of the same compound?
**A.** The TGI was over 100 µM.

**Q.** And the TGI [41]?
**A.** The TGI was over 100 µM.

**Q.** What about the TGI [42] of the same compound?
**A.** Its TGI is over 100 µM.

**Q.** And the TGI [43]?
**A.** The TGI was over 100 µM.

**Q.** What about the TGI [44] of the same compound?
**A.** The TGI was over 100 µM.

**Q.** What about the TGI [45] of the same compound?
**A.** Its TGI is over 100 µM.

**Q.** What about the TGI [46] of the same compound?
**A.** The TGI was over 100 µM.

**Q.** And the TGI [47]?
**A.** Its TGI is over 100 µM.

**Q.** What about the TGI [48] of the same compound?
**A.** The TGI was over 100 µM.

**Q.** And the TGI [49]?
**A.** Its TGI is over 100 µM.

**Q.** And the TGI [50]?
**A.** Its TGI is over 100 µM.

**Q.** What about the TGI [51] of the same compound?
**A.** The TGI was over 100 µM.

**Q.** And the TGI [52]?
**A.** Its TGI is over 100 µM.

**Q.** And the TGI [53]?
**A.** The TGI was over 100 µM.

**Q.** Which results are given for `O=C1NC2c3c(I)sc(I)c3C(=O)C2O1` (stereo unspecified)?
**A.** TGI [1]: 7.86 µM; TGI [3]: 4.92 µM; TGI [4]: 28.1 µM; TGI [5]: 15.5 µM; TGI [54]: 23 µM; TGI [6]: 34.1 µM; TGI [7]: 30.5 µM; TGI [55]: 9.76 µM; TGI [8]: 6.16 µM; TGI [9]: 20.9 µM; TGI [56]: 12.2 µM; TGI [10]: 9.27 µM; TGI [11]: 31 µM; TGI [12]: 21.5 µM; TGI [13]: > 38.5 µM; TGI [14]: 3.25 µM; TGI [15]: 7.89 µM; TGI [57]: 27.3 µM; TGI [16]: > 31.6 µM; TGI [17]: 28.3 µM; TGI [18]: 6.88 µM; TGI [19]: 6.87 µM; TGI [20]: 22.4 µM; TGI [21]: 17.5 µM; TGI [22]: 10.1 µM; TGI [23]: 21.5 µM; TGI [24]: 19 µM; TGI [25]: 9.16 µM; TGI [26]: 31.5 µM; TGI [27]: 11.1 µM; TGI [28]: > 45.7 µM; TGI [29]: 17.8 µM; TGI [30]: 12.7 µM; TGI [31]: 9.36 µM; TGI [32]: 16.5 µM; TGI [33]: > 50 µM; TGI [34]: 3.63 µM; TGI [35]: 51.5 µM; TGI [58]: 5.15 µM; TGI [59]: 5.23 µM; TGI [36]: 28.3 µM; TGI [37]: 15.9 µM; TGI [38]: 34.1 µM; TGI [39]: 20.4 µM; TGI [40]: 16.6 µM; TGI [41]: 15.3 µM; TGI [42]: 3.16 µM; TGI [43]: 35.1 µM; TGI [44]: > 59.9 µM; TGI [45]: 23.3 µM; TGI [46]: 12.2 µM; TGI [47]: 25.8 µM; TGI [48]: 24.3 µM; TGI [49]: 11 µM; TGI [50]: 13.9 µM; TGI [51]: 32.9 µM; TGI [52]: 13.7 µM; TGI [53]: 8.01 µM
